According to patent publication US9655886B2, “Substituted 2,3,4,5-tetrahydro-1H-pyrido[4,3-b]indoles, methods for use thereof” (priority 2015, dated 2017):

Key:
BALB/c male mice [1] = experiment: Passive Avoidance of Mice in a Shuttle Chamber, memory disturbed by scopolamine (Example 7); format: in vivo; conditions: scopolamine 0.3 mg/kg, injected 30 minutes before training; FIGS. 2-4
Procedure: A shuttle chamber (Ugo Basile, Italy) consisted of two sections was used. […] The sections were connected via a hole which could be shut with a vertical door. The floor was made of transverse metal bars on which DC current impulses could be fed. Experiments were carried out on aged male mice of line BALB/c weighing 20-24 grams. On the first day of the experiment 30 minutes before training the mice were injected intraintestinally with physiological solution of scopolamine (0.3 mg/kg) or scopolamine in combination with antagonists of 5-HT6 receptors 1.2.1(2)HCl, 1.2.1(4)HCl or 1.2.1(5)HCl. Each group consisted of at least 8 animals. The animals were placed in the light section, and the latent period of the first entry into the dark chamber was registered. Then the vertical door was closed and the animal was punished by 0.6 mA DC current for 3 seconds. After that the animal was carried back to its living cell. In 22-24 hours the same animal was placed in the light section of the shuttle chamber once again and the latent period before its entry into the dark section, the total time of its stay in the light section and the number of entries into the dark section were registered. Each observation lasted for 5 minutes. The experiment was carried out during the day time in an isolated laboratory using white noise at a level of about 70 decibel above the human hearing threshold. Scopolamine causes the disturbance of training (memory loss) which results in […]. The fact that 5-HT6 receptor antagonists can improve the learning ability that has been disturbed by scopolamine is regarded as evidence for their nootropic effect.

BALB/c male mice [2] = experiment: Mice Behavior an Elevated Cross Shaped Labyrinth (tranquilizing action); format: in vivo; conditions: preference index for open sections, number of defecations; FIG. 19-21
From the text: The length of each section in the labyrinth is 30 cm, the width is 5 cm, the height of the walls is 15 cm. Two opposite sections are closed by transparent walls on the sides and on the butt ends, the other two sections are lit and opened. A mouse was placed in the center of the labyrinth and for the next five minutes the number of entries the open and closed sections and the time spent in each type of section was registered. […] The animals usually avoid the open sections (the preference index is between 0.2 and 0.3).

BALB/c male mice [3] = experiment: Passive Avoidance of Mice in a Shuttle Chamber, scopolamine or MK-801 (Example 8); format: in vivo; conditions: scopolamine 0.3 mg/kg or MK-801 0.1 mg/kg; SB-742457 1 mg/kg; FIGS. 5-10
Procedure: A shuttle chamber (Ugo Basile, Italy) consisted of two sections was used. […] The sections were connected via a hole which could be shut with a vertical door. The floor was made of transverse metal bars on which DC current impulses could be fed. Experiments were carried out on aged male mice of line BALB/c weighing 20-24 grams.
On the first day of the experiment 30 minutes before training the mice were injected intraintestinally with physiological solution of scopolamine (0.3 mg/kg) or scopolamine in combination with antagonists of 5-HT6 receptors 1.2.1(2)HCl, 1.2.1(4)HCl or 1.2.1(5)HCl. Each group consisted of at least 8 animals. The animals were placed in the light section, and the latent period of the first entry into the dark chamber was registered. Then the vertical door was closed and the animal was punished by 0.6 mA DC current for 3 seconds. After that the animal was carried back to its living cell. In 22-24 hours the same animal was placed in the light section of the shuttle chamber once again and the latent period before its entry into the dark section, the total time of its stay in the light section and the number of entries into the dark section were registered. Each observation lasted for 5 minutes.
The experiment was carried out in the same way as in example 7. On the first day 30 minutes before training the mice were injected intra-intestinally with a physiological solution of scopolamine (0.3 mg/kg) or MK-801(0.1 mg/kg).

BALB/c male mice [4] = experiment: Training Mice in the Morris Water labyrinth, scopolamine; format: in vivo; conditions: scopolamine 0.6 mg/kg; 1.2.1(5)HCl 0.1 mg/kg, 1.2.1(1)HCl 1 mg/kg, tacrine 3 mg/kg; FIG. 11-12
Procedure: A circular pool of 100 cm diameter and of 30 cm sides was used. It was filled with water at 20-22° C. A circular ceramic platform of 14 cm height was placed in the pool. The behavior of the animals was registered using an automated computer video system in addition with software package of movement analyzer Any-maze (Stoelting Co., US). The experiments were carried out on aged male mice of BALB/c line weighing 20-24 grams. Before the experiments mice fit for learning were selected. This was done by placing the platform 1 cm above the water level and putting an animal on the platform for 20 seconds. Then the mouse was put in the water on the opposite side of the pool and allowed to find the platform and climb onto it for 60 seconds, where it was left for additional 20 seconds. After that the mouse was repeatedly immersed in the water on the opposite side of the pool and allowed to search for the platform. If it failed in finding the platform within 60 seconds the experimentator helped it to find the platform and climb onto it. If the mice couldn't find the platform itself in two consecutive attempts it was excluded from the experiment.
During the next two days the platform was placed 0.5 centimeters lower the water level. Every day the mice were given four attempts for finding the platform within 60 seconds. The time interval between the attempts was 20 seconds, during which the mice stayed on the platform. Every day before the first attempt the mice was placed on the platform for 20 seconds. The time needed for finding and climbing the platform was registered. The animals were sunk in water in two different places on the side of the pool opposite to the platform.
The animals of the control group were injected with physiological solution. At least 8 animals were used in each group.
On the third day the platform was removed and each animal was placed in the pool once for a period of 60 seconds. The time each mouse spent in the area where the platform had been located during the previous days was registered. […]

SHK male mice = experiment: Recognition of New Objects by Mice Under Scopolamine and MK-801; format: in vivo; conditions: scopolamine 1 mg/kg and MK-801 0.2 mg/kg; FIG. 13-14
Procedure: The experiments were carried out in a closed cross shaped labyrinth which consisted of 4 peripheral sections connected with the central chamber via a 7×7 cm hole. The labyrinth was made of black plastic and its sections were of 14×14×14 cm size. The top cover of the labyrinth was transparent.
A mouse was placed in the central section of the labyrinth and allowed to investigate the environment. A mouse was considered to have entered a section once all of its four paws were inside the chamber. A test was considered to be completed when the mouse had moved 12 times between the sections, having made a total of 13 visits. The floor of the labyrinth was cleaned after each animal.
With each mouse the test was carried out twice with 1 hour interval.
During the first test, each section of the labyrinth contained a circular plastic cup of 3 cm height and 7 cm diameter. During the second test the cover in each of the two opposing sections was replaced by a conical glass bulb of 7 cm height and 4 cm across the bottom. The time that the mice spent in each section of the labyrinth was registered and the index of new object recognition was calculated as the ratio of the time spent in the sections with the bulbs to the time spent in all sections of the labyrinth. If no preference is given to the sections with new objects the index is 0.5.
When new objects appear the mice spend more time in the section containing them that results in an increased recognition index. Scopolamine (1 mg/kg) and MK-801 (0.2 mg/kg) disturbed learning (memory) that leads to lowering of the recognition index.

5-HT6 receptor = biological target: T1, 5-HT6 receptor (Homo sapiens, UniProt P50406); experiment: Inhibition of serotonine stimulated intracellular cAMP in HEK 293 cells with expressed 5-HT6 receptor (LANCE cAMP); format: cell-based; conditions: HEK 293 cells with artificially expressed 5-HT6 receptor; reduction of cAMP induced by serotonine
T1 construct: expressed in transfected cells; host or cells: HEK 293
T1 sequence (P50406 whole entry): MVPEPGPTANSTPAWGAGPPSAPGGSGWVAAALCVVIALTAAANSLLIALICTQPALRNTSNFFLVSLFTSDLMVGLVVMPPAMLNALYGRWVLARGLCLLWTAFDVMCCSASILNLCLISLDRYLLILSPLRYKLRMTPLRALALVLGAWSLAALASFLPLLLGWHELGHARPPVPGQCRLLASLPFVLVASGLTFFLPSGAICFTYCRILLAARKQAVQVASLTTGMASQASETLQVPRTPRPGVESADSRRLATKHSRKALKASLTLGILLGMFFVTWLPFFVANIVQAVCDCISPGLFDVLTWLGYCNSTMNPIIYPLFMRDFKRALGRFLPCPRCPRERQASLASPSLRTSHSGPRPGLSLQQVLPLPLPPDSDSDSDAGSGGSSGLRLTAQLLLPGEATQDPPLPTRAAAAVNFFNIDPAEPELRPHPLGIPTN
Procedure: The concentration of intracellular cAMP was determined using a LANCE cAMP reagent (PerkinElmer) by the method described by the manufacturer: [http://las.perkinelmer.com/content/Manuals/MAN_LANCEcAMP384KitUser.pdf].

SMILES	nootropic action (memory enhancement disturbed by scopolamine), passive avoidance (BALB/c male mice [1])	tranquilizing action, elevated cross shaped labyrinth (BALB/c male mice [2])	nootropic action, passive avoidance (BALB/c male mice [3])	improvement of mice's training, Morris water labyrinth (BALB/c male mice [4])	nootropic action, new object recognition (SHK male mice)	also measured
Cc1ccc2c(c1)c1c(n2CCc2ccccn2)CCN(C)C1.Cl [1.2.1(4)HCl, 2,8-dimethyl-5-[2-(pyridin-2-yl)ethyl]-2,3,4,5-tetrahydro-1H-pyrido[4,3-b]indole hydrochloride]	nootropic action which is the most prominent	–	–	–	–	–
Cc1ccc2c(c1)c1c(n2CCc2ccncc2)CCN(C)C1.Cl [1.2.1(2)HCl, 2,8-dimethyl-5-[2-(pyridin-4-yl)ethyl]-2,3,4,5-tetrahydro-1H-pyrido[4,3-b]indole hydrochloride]	nootropic action which is the most prominent	–	–	–	–	–
O=C1CC2(CCCC2)CC(=O)N1CCCCN1CCN(c2ncccn2)CC1 [Buspiron]	–	tranquilizing action	–	–	–	–
Cc1ccc2c(c1)c1c(n2CCc2ccc(C)nc2)CCN(C)C1.Cl [1.2.1(5)HCl, 2,8-dimethyl-5-[2-(6-methylpyridin-3-yl)ethyl]-2,3,4,5-tetrahydro-1H-pyrido[4,3-b]indole hydrochloride]	nootropic action	tranquilizing action	nootropic action	statistically significant improvement of mice's training	nootropic action	–
O=S(=O)(c1ccccc1)c1cnc2c(N3CCNCC3)cccc2c1 [SB-742457]	–	–	inactive	–	nootropic action	–
CC12CC3CC(C)(C1)CC(N)(C3)C2 [memantine]	–	–	–	–	nootropic action	–
Cc1ccc2c(c1)c1c(n2CCc2ccccc2)CCN(C)C1.Cl [1.2.1(1)HCl, 2,8-dimethyl-5-(2-phenylethyl)-2,3,4,5-tetrahydro-1H-pyrido[4,3-b]indole hydrochloride]	–	tranquilizing action, which is the most prominent	highest activity	statistically significant improvement of mice's training	nootropic action, the level of which is the most prominent	–
Nc1c2c(nc3ccccc13)CCCC2 [tacrine]	–	–	–	statistically significant improvement of mice's training	–	–
CN1CCc2c(c3ccccc3n2C#Cc2ccccc2)C1 [1.3(1), 2-methyl-5-phenylethynyl-2,3,4,5-tetrahydro-1H-pyrido[4,3-b]indole]	–	–	–	–	–	IC50 (5-HT6 receptor): 4.09 µM
